Where two headings read alike, the source gives them in different places.
Key:
Format in all cases: cell-based
Septoria tritici = test: Activity against leaf blotch on wheat caused by Septoria tritici (microtiter plate); conditions: active compound alone, 7 days after inoculation
Botrytis cinerea = test: Activity against the grey mold Botrytis cinerea in the microtiterplate test
Pyricularia oryzae = conditions: active compound alone, 7 days after inoculation
[1] = Botrytis cinerea, 168 h, active compound alone, 0.063 ppm, 7 days after inoculation, read-out: Observed efficacy
[2] = Botrytis cinerea, 168 h, active compound alone, 7 days after inoculation, read-out: Observed efficacy

Fc1ccc([C@]2(Cn3cncn3)O[C@H]2c2ccccc2Cl)cc1 (racemic) [Epoxiconazol, (2RS,3SR)-1-[3-(2-chlorophenyl)-2,3-epoxy-2-(4-fluorophenyl)propyl]-1H-1,2,4-triazole, reference compound]
Observed efficacy (Septoria tritici; 0.063 ppm): 66% | inhibition of growth at 0.25 ppm (Botrytis cinerea; Botrytis cinerea, 168 h, active compound alone, 0.25 ppm, 7 days after inoculation, read-out: Observed efficacy): 37%

CC(C)OC(=O)N[C@H](C(=O)N[C@H](C)c1nc2ccc(F)cc2s1)C(C)C [Benthivalicarb, isopropyl {(S)-1-[(1R)-1-(6-fluorobenzothiazol-2-yl)ethylcarbamoyl]-2-methylpropyl}carbamate, reference compound]
inhibition of growth at 0.063 ppm (Botrytis cinerea; Botrytis cinerea, 168 h, read-out: Observed efficacy): 0%

COC(=O)Nc1nc2ccccc2[nH]1 [Carbendazim, methyl (1H-benzoimidazol-2-yl)-carbamate, reference compound]
inhibition of growth at 0.063 ppm (Botrytis cinerea; [1]): 74% | Observed efficacy (Pyricularia oryzae; 0.25 ppm): 30%

OC(c1cccnc1)c1c(-c2ccc(Cl)cc2Cl)noc1-c1cccc(Cl)c1 (centres unmarked) [Cmpd No. 4, 5-(3-Chlorophenyl)-3-(2,4-dichlorophenyl)-4-[(3-pyridyl)hydroxymethyl]-isoxazole]
inhibition of growth at 0.001 ppm (Botrytis cinerea; [2]): 2%

CC(C)(C)c1onc(-c2ccc(Cl)cc2Cl)c1C(O)c1cccnc1 (centres unmarked) [Cmpd No. 7, 3-(2,4-Dichlorophenyl)-5-(1,1-dimethylethyl)-4-[(3-pyridyl)hydroxymethyl]-isoxazole]
Observed efficacy (Pyricularia oryzae; 0.001 ppm): 2%

OC(c1cccnc1)c1c(-c2ccc(Cl)cc2)noc1-c1ccc(F)cc1 (centres unmarked) [Cmpd No. 88, 3-(4-Chlorophenyl)-5-(4-fluorophenyl)-4-[(3-pyridyl)-hydroxymethyl]-isoxazole]
Observed efficacy (Pyricularia oryzae; 1 ppm): 3%

OC(c1cccnc1)c1c(-c2ccc(F)cc2)noc1-c1ccccc1Cl (centres unmarked) [Cmpd No. 90, 5-(2-Chlorophenyl)-3-(4-fluorophenyl)-4-[(3-pyridyl)-hydroxymethyl]-isoxazole]
Observed efficacy (Septoria tritici; 0.00025 ppm): 9% | inhibition of growth at 4e-06 ppm (Botrytis cinerea; Botrytis cinerea, 168 h, active compound alone, 0.000004 ppm, 7 days after inoculation, read-out: Observed efficacy): 5% | inhibition of growth at 1.6e-05 ppm (Botrytis cinerea; Botrytis cinerea, 168 h, active compound alone, 0.000016 ppm, 7 days after inoculation, read-out: Observed efficacy): 5% | inhibition of growth at 6.3e-05 ppm (Botrytis cinerea; Botrytis cinerea, 168 h, active compound alone, 0.000063 ppm, 7 days after inoculation, read-out: Observed efficacy): 1% | inhibition of growth at 0.00025 ppm (Botrytis cinerea; [2]): 1% | Observed efficacy (Pyricularia oryzae; 0.000063 ppm): 6%

OC(c1cccnc1)c1c(-c2cc(F)cc(F)c2)noc1-c1ccc(Cl)cc1 (centres unmarked) [Cmpd No. 124, 5-(4-Chlorophenyl)-3-(3,5-difluorophenyl)-4-[(3-pyridyl)-hydroxymethyl]-isoxazole]
inhibition of growth at 0.001 ppm (Botrytis cinerea; [2]): 1%

OC(c1cccnc1)c1c(-c2ccc(Cl)cc2F)noc1-c1ccccc1F (centres unmarked) [Cmpd No. 144, 3-(4-Chloro-2-fluorophenyl)-4-[(3-pyridyl)-hydroxymethyl]-5-(2-fluorophenyl)-isoxazole]
Observed efficacy (Septoria tritici; 0.016 ppm): 16% | inhibition of growth at 0.00025 ppm (Botrytis cinerea; [2]): 4% | inhibition of growth at 0.001 ppm (Botrytis cinerea; [2]): 2%

OC(c1cccnc1)c1c(-c2ccc(F)cc2F)noc1-c1ccc(Cl)cc1F (centres unmarked) [Cmpd No. 145, 3-(2,4-Difluorophenyl)-4-[(3-pyridyl)-hydroxymethyl]-5-(4-chloro-2-fluorophenyl)-isoxazole]
inhibition of growth at 0.001 ppm (Botrytis cinerea; [2]): 20% | Observed efficacy (Pyricularia oryzae; 0.000063 ppm): 10%

OC(Cc1ccccc1Cl)(Cn1nc[nH]c1=S)C1(Cl)CC1 (centres unmarked) [Prothioconazol, 2-[2-(1-chlorocyclopropyl)-3-(2-chlorophenyl)-2-hydroxypropyl]-2,4-dihydro-[1,2,4]triazole-3-thione, reference compound]
inhibition of growth at 1 ppm (Botrytis cinerea; Botrytis cinerea, 168 h, active compound alone, 1 ppm, 7 days after inoculation, read-out: Observed efficacy): 46%

COC(=O)N(OC)c1ccccc1COc1ccn(-c2ccc(Cl)cc2)n1 [Pyraclostrobin, reference compound]
Observed efficacy (Pyricularia oryzae; 0.016 ppm): 67%

Cc1cc(C)nc(Nc2ccccc2)n1 [Pyrimethanil, 4,6-dimethylpyrimidin-2-ylphenylamine, reference compound]
Observed efficacy (Septoria tritici; 16 ppm): 38% | inhibition of growth at 0.063 ppm (Botrytis cinerea; [1]): 5%

manganese ethylenebis(dithiocarbanate) zinc complex [Mancozeb]
Observed efficacy (Septoria tritici; 4 ppm): 52%

zinc propylenebis(dithiocarbamate) polymer [Propineb, reference compound]
Observed efficacy (Botrytis cinerea; active compound alone, 4 ppm, 7 days after inoculation): 32%
